The values that follow are results of earlier work, collected in patent US12533325B2, “Composition and method for preventing or treating opioid withdrawal symptoms” (priority 2023, dated 2026).

In the data set the test system is heroin-seeking behavior.

Turning to `C=C(C)[C@@H]1CCC(C)=C[C@H]1c1c(O)cc(CCCCC)cc1O` [CBD, Cannabidiol], where the note is “cue-induced reinstatement”, the “heroin-seeking behavior reinstated by a conditional stimulus” value is “attenuated heroin-seeking behavior reinstated by a conditional stimulus”. The “persistence of effect on heroin-seeking behavior after administration” value (twenty-four hours and two weeks after administration) was “protracted effect with significance after twenty-four hours and even two weeks after administration”.
